Source: ChEMBL document CHEMBL5131388, “Discovery of novel brain-penetrant GluN2B NMDAR antagonists via pharmacophore-merging strategy as anti-stroke therapeutic agents” (Eur J Med Chem, 2022)

Legend:
[1] = Neuroprotective activity against NMDA-induced neurotoxicity in Sprague-Dawley rat hippocampal neurons assessed as increase in cell viability at 10 uM incubated for 18 hrs followed by NMDA addition and measured after 0.5 hrs by MTT assay; type: functional, Hippocampal neurone; settings: time 18.5 hrs
[2] = Neuroprotective activity against NMDA-induced neurotoxicity in Sprague-Dawley rat hippocampal neurons assessed as increase in cell viability at 1 uM incubated for 18 hrs followed by NMDA addition and measured after 0.5 hrs by MTT assay; type: functional, Hippocampal neurone; settings: time 18.5 hrs
[3] = Neuroprotective activity against NMDA-induced neurotoxicity in Sprague-Dawley rat hippocampal neurons assessed as increase in cell viability at 0.1 uM incubated for 18 hrs followed by NMDA addition and measured after 0.5 hrs by MTT assay; type: functional, Hippocampal neurone; settings: time 18.5 hrs
Rattus norvegicus [4] = test: Neuroprotective activity in Sprague-Dawley rat model of middle cerebral artery occlusion-induced ischemia-reperfusion injury assessed as decrease in cerebral infarction rate at 20 mg/kg, po measured 24 hrs post injury by TTC staining based histological analysis; type: functional; design: scale not given: the % may be the effect or the level left
Glutamate NMDA receptor = test: Displacement of [3H] ifenprodil from Wistar rat glutamate NMDA receptor incubated for 2 hrs by scintillation counting method; type: protein-complex assay
Rattus norvegicus [5] = test: Neuroprotective activity in Sprague-Dawley rat model of middle cerebral artery occlusion-induced ischemia-reperfusion injury assessed as decrease in neurological score at 20 mg/kg, po measured 24 hrs post injury by TTC staining based histological analysis; type: functional
[6] = molecular target: Glutamate NMDA receptor; GRIN1/GRIN2A (Homo sapiens) (UniProt Q05586+Q12879); test: Antagonist activity at GluN1/GluN2A NMDA receptor (unknown origin) transfected in HEK293 cells assessed as inhibition of glycine induced current response at 10 uM in presence of L-glutamate by patch-clamp method; type: cell-based
[7] = molecular target: Glutamate NMDA receptor; GRIN1/GRIN2B (Homo sapiens) (UniProt Q05586+Q13224); test: Antagonist activity at GluN1/GluN2B NMDA receptor (unknown origin) transfected in HEK293 cells assessed as inhibition of glycine induced current response at 10 uM in presence of L-glutamate by patch-clamp method; type: cell-based; settings: filed as antagonist
[8] = molecular target: Ionotropic glutamate receptor NMDA 1/2D (Homo sapiens) (UniProt Q05586+O15399); test: Antagonist activity at GluN1/GluN2D NMDA receptor (unknown origin) transfected in HEK293 cells assessed as inhibition of glycine induced current response at 10 uM in presence of L-glutamate by patch-clamp method; type: cell-based
[9] = molecular target: Ionotropic glutamate receptor NMDA 1/2C (Homo sapiens) (UniProt Q05586+Q14957); test: Antagonist activity at GluN1/GluN2C NMDA receptor (unknown origin) transfected in HEK293 cells assessed as inhibition of glycine induced current response at 10 uM in presence of L-glutamate by patch-clamp method; type: cell-based

| Compound | Activity [1] | Activity [2] | Activity [3] | also measured |
| --- | --- | --- | --- | --- |
| O=C1OC(CCCN2CCN(Cc3ccc(Cl)cc3)CC2)c2ccccc21 (stereo unspecified) | 60.33% | 54.83% | 49.49% | – |
| CCCCC1OC(=O)c2ccccc21 (stereo not drawn) [RAC-3-N-BUTYLPHTHALIDE] | 73.45% | 57.94% | 55.71% | Activity (Rattus norvegicus [4]): 18.81%; Ki (Glutamate NMDA receptor): 14.8 nM; Activity (Rattus norvegicus [5]): 2.13 |
| CN(C)CCCC1OC(=O)c2ccccc21 (stereo unspecified) | 78.18% | 77.37% | 48.37% | – |
| O=C1OC(CCCN2CCN(Cc3cccc(Cl)c3)CC2)c2ccccc21 (stereo unspecified) | 62.96% | 55.95% | 49.69% | – |
| O=C1OC(CCN2CCc3sccc3C2)c2ccccc21 (stereo unspecified) | 66.05% | 58.81% | 45.88% | – |
| O=C1OC(CCCN2CCN(Cc3ccc(F)c(F)c3)CC2)c2ccccc21 (stereo unspecified) | 75.45% | 65.4% | 57.3% | – |
| O=C1OC(CCCN2CCN(Cc3ccc(F)cc3)CC2)c2ccccc21 (stereo unspecified) | 72.2% | 64.11% | 52.58% | – |
| O=C1OC(CCN2CCCC2)c2ccccc21 (stereo unspecified) | 70.66% | 66.34% | 57.21% | – |
| Cc1ccc(CN2CCN(CCCC3OC(=O)c4ccccc43)CC2)cc1 (stereo unspecified) | 68.38% | 64.44% | 51.66% | – |
| O=C1OC(CCCN2CCc3sccc3C2)c2ccccc21 (stereo unspecified) | 66.52% | 61.1% | 49.39% | – |
| O=C1OC(CCCN2CCN(Cc3ccncc3)CC2)c2ccccc21 (stereo unspecified) | 75.54% | 66.35% | 57.55% | – |
| Cc1cccc(CN2CCN(CCCC3OC(=O)c4ccccc43)CC2)c1 (stereo unspecified) | 67.43% | 61.15% | 53.08% | – |
| O=C1OC(CCCN2CCN(Cc3cccc([N+](=O)[O-])c3)CC2)c2ccccc21 (stereo unspecified) | 73.28% | 69.03% | 53.23% | – |
| O=C1OC(CCCN2CCN(Cc3ccc(C(F)(F)F)cc3)CC2)c2ccccc21 (single isomer, unassigned; enantiomer A) [listing 1 of 2 here] | – | – | – | inhibition [6]: 23.4%; inhibition [7]: 71.9%; inhibition [8]: 16.7%; inhibition [9]: 14.9% |
| O=C1OC(CCCN2CCCCC2)c2ccccc21 (stereo unspecified) | 77.85% | 70.2% | 63.96% | – |
| CC(C(O)c1ccc(O)cc1)N1CCC(Cc2ccccc2)CC1 (stereo unspecified) [IFENPRODIL] | 85.83% | 76.98% | 65.93% | Activity (Rattus norvegicus [4]): 14.35%; inhibition [6]: 13.1%; inhibition [7]: 135%; Activity (Rattus norvegicus [5]): 1.75; inhibition [8]: 18.1%; inhibition [9]: 28.8% |
| N#Cc1ccc(CN2CCN(CCCC3OC(=O)c4ccccc43)CC2)cc1 (stereo unspecified) | 60.33% | 54.83% | 49.49% | – |
| O=C1OC(CCCN2CCC(O)CC2)c2ccccc21 (stereo unspecified) | 77.13% | 67.72% | 58.83% | – |

| Compound | Activity [1] | Activity [2] | Activity [3] | also measured |
| --- | --- | --- | --- | --- |
| O=C1OC(CCCN2CCOCC2)c2ccccc21 (stereo unspecified) | 76.22% | 65.19% | 57.15% | – |
| O=C1OC(CCCN2CCC(Cc3ccccc3)CC2)c2ccccc21 (stereo unspecified) | 79.12% | 78.13% | 49.13% | – |
| COc1ccc(CN2CCN(CCCC3OC(=O)c4ccccc43)CC2)cc1OC (stereo unspecified) | 48.44% | 47.16% | 46.58% | – |
| O=C1OC(CCCN2CCC(CO)CC2)c2ccccc21 (stereo unspecified) | 78.14% | 74.86% | 60.19% | – |
| O=C1OC(CCCN2CCN(Cc3cccnc3)CC2)c2ccccc21 (stereo unspecified) | 63.33% | 55.95% | 51.84% | – |
| CN(C)CCC1OC(=O)c2ccccc21 (stereo unspecified) | 73.56% | 71.66% | 56.09% | – |
| O=C1OC(CCCN2CCN(Cc3ccc([N+](=O)[O-])cc3)CC2)c2ccccc21 (stereo unspecified) | 88.35% | 79.64% | 66.55% | Activity (Rattus norvegicus [4]): 14.53%; Ki (Glutamate NMDA receptor): 4.55 nM; Activity (Rattus norvegicus [5]): 1.75 |
| O=C1OC(CCCN2CCN(Cc3ccccc3)CC2)c2ccccc21 (stereo unspecified) | 81.91% | 79.85% | 67.64% | Ki (Glutamate NMDA receptor): 13.6 nM |
| O=C1OC(CCCN2CCN(Cc3ccccn3)CC2)c2ccccc21 (stereo unspecified) | 74.65% | 67.89% | 57.46% | – |
| O=C1OC(CCCN2CCN(Cc3ccc(C(F)(F)F)cc3)CC2)c2ccccc21 (single isomer, unassigned; enantiomer A) [listing 2 of 2 here] | – | – | – | Activity ([1]; 10 µM): 81.02%; Activity ([2]; 1 µM): 71.91%; Activity ([3]; 0.1 µM): 62.81% |
| O=C1OC(CCCN2CCN(Cc3ccc(C(F)(F)F)cc3)CC2)c2ccccc21 (single isomer, unassigned; enantiomer B) [listing 1 of 2 here] | – | – | – | inhibition [6]: 25.9%; inhibition [7]: 81%; inhibition [8]: 20.3%; inhibition [9]: 16.2% |
| O=C1OC(CCCN2CCN(Cc3ccc(Br)cc3)CC2)c2ccccc21 (stereo unspecified) | 46.13% | 45.56% | 46.12% | – |
| O=C1OC(CCCN2CCN(Cc3ccc(C(F)(F)F)cc3)CC2)c2ccccc21 (single isomer, unassigned; enantiomer B) [listing 2 of 2 here] | – | – | – | Activity ([1]; 10 µM): 81.82%; Activity ([2]; 1 µM): 81.02%; Activity ([3]; 0.1 µM): 65.86% |
| O=C1OC(CCCN2CCN(Cc3ccc4ccccc4n3)CC2)c2ccccc21 (stereo unspecified) | 62.96% | 55.95% | 49.69% | – |
| CS(=O)(=O)c1ccc(CN2CCN(CCCC3OC(=O)c4ccccc43)CC2)cc1 (stereo unspecified) | 61.02% | 55.51% | 50.17% | – |
| O=C1OC(CCCN2CCN(Cc3ccc(C(F)(F)F)cc3)CC2)c2ccccc21 (racemic) | – | – | – | inhibition [6]: 26.6%; inhibition [7]: 75.4%; inhibition [8]: 10.3%; inhibition [9]: 12% |
| O=C1OC(CCCN2CCCC2)c2ccccc21 (stereo unspecified) | 73.16% | 65.3% | 56.53% | – |
